Measured values: patent publication US20230077811A1, “ACTIVATION OF NEUROPEPTIDE RECEPTORS ON PLASMACYTOID DENDRITIC CELLS TO TREAT OR PREVENT OCULAR DISEASES ASSOCIATED WITH NEOVASCULARIZATION AND INFLAMMATION” (Tufts Medical Center, Inc., priority 2020, published 2023)
Where two headings read alike, the source gives them in different places. One block for each compound: values may come before it.

Key:
splenic pDCs = test: Flow cytometry of splenic pDCs for ES and TSP-1 after 24 hours with neuropeptide receptor agonists; assay type: cell-based, C57BL/6 mice
murine pDCs = test: Flow cytometry of murine pDCs incubated with THIQ for angiostatic proteins; assay type: cell-based; conditions: THIQ 10 ug/mL
human corneal pDCs = test: Flow cytometry of human corneal pDCs incubated with THIQ for angiostatic proteins; assay type: cell-based; conditions: THIQ 10 ug/mL
Source text: Phenotypically murine and human pDCs express divergent sets of surface markers as reviewed by Rogers et al. (Rogers et al., Am. J. Transplant. 13:1125-1133, 2013). Human pDCs express the pan leukocyte marker CD45, BDCA2 (CD303), and BDCA4 (neuropilin-1). To examine the possibility that murine but not human pDCs express angiostatic molecules, human corneal eye bank research samples for ES, PF-4, TSP-1 and TIMP3 were examined. Human corneal tissues were obtained and processed by […] Eyebank (Ann Arbor, Mich., USA) according to a standardized eye banking protocols, and procedures. […] The exclusion criterion was tissue from donors with corneal neovascularization, or a history of diabetes, cancer, or keratitis. […] Pharmacol. Toxicol. 101:416-420, 2007; Sebhat et al., J. Med. Chem. 45:4589-4593, 2002) was utilized. The ability of THIQ (10 ug/mL) to impact murine and human pDCs was tested.

suture induced CNV = test: Suture induced model of corneal neovascularization (CNV), CD31 whole mount quantification; assay type: in vivo, C57BL/6 mice
[1] = tested on: CNV in C57BL/6 to BALB/c corneal transplants; test: High-risk corneal transplant model (C57BL/6 to BALB/c), CNV quantified by CD31 staining; assay type: in vivo, BALB/c mice; conditions: subconjunctival THIQ (10 ug/mL) every other day for 14 days, versus saline
[2] = tested on: phospho-PKCδ/θ (Ser643/676); test: Immunoblot of PKC isoform phosphorylation in FACS-sorted pDCs treated with THIQ; assay type: cell-based, murine
Experimental: Previous studies have shown the MC4 receptor to couple to all three major classes of G proteins, Gs, Gi/o, and Gq depending on cell type (Tao, Endocr. Rev. 31:506-543, 2010). To test pDC MC4 signaling, FACS-sorted pDCs were incubated with THIQ (10 ug/mL) for 5, 15, or 30 minutes. Protein kinase C (PKC) isoform phosphorylation was examined by phospho-PKC specific antibodies and immunoblotting. Specifically, Splenic pDCs were FACs sorted as previously described. Five hundred thousand pDCs were used per condition and lysed directly with chilled 1× radioimmunoprecipitation assay (RIPA) buffer or 1× Laemmli Buffer on ice. Samples were diluted in NuPAGE sample loading buffer (ThermoFisher) and 1× NuPAGE Sample Reducing Agent (ThermoFisher) and heated to 70° C. for 10 minutes. Protein lysates were resolved on a 10% Bis-Tris SDS gel (ThermoFisher) and transferred to a nitrocellulose membrane (ThermoFisher). Membranes were blocked with odyssey blocking buffer (Licor) for one hour and incubated with protein specific primary antibodies (1:100 or 1:200) overnight at 4° C. Membranes were washed with blocking buffer and secondary antibodies were diluted (1:5000 or 1:15000) and incubated with membranes for 60 minutes at room temperature. Membranes were imaged using an Odyssey® CLx Imaging System (Licor). Image analysis was done using Image Studio software. Protein sampling kits for PKC, and NF-κB signaling antibodies were purchased from Cell signaling (Phospho-PKC Antibody Sampler Kit #9921 and NF-κB Pathway Sampler Kit #9936).

NF-kB = test: Immunofluorescence of NF-kB (RelB, c-Rel) nuclear localization in sorted pDCs treated with THIQ; assay type: cell-based, murine; conditions: THIQ 10 ug/mL, 24 hours, compared to control pDCs

- pDC ES protein expression (splenic pDCs; 24 hours, compared to baseline): mixed impact
- pDC TSP-1 protein expression (splenic pDCs; 24 hours, compared to baseline): mixed impact
Compound: COC(=O)[C@H](CCCN=C(N)N)NC(=O)CCCc1c(-c2ccccc2)[nH]c2c(F)cc(F)cc12 [L-803,087]

Compound: O=C(N[C@H](Cc1ccc(Cl)cc1)C(=O)N1CCC(Cn2cncn2)(C2CCCCC2)CC1)[C@H]1Cc2ccccc2CN1 [THIQ, (3R)—N-[(2R)-3-(4-chlorophenyl)-1-[4-cyclohexyl-4-(1,2,4-triazol-1-ylmethyl)piperidin-1-yl]-1-oxopropan-2-yl]-1,2,3,4-tetrahydroisoquinoline-3-carboxamide]
- ES mean fluorescence intensity (MFI) (murine pDCs): increased
- PF4 mean fluorescence intensity (MFI) (murine pDCs): increased
- TIMP3 mean fluorescence intensity (MFI) (murine pDCs): increased
- TSP-1 mean fluorescence intensity (MFI) (murine pDCs): increased
- ES mean fluorescence intensity (MFI) (human corneal pDCs): increased
- PF4 mean fluorescence intensity (MFI) (human corneal pDCs): increased
- TIMP3 mean fluorescence intensity (MFI) (human corneal pDCs): increased
- TSP-1 mean fluorescence intensity (MFI) (human corneal pDCs): increased
- Reduction of suture induced CNV (suture induced CNV; subconjunctival injection of THIQ (10 ug/mL) every other day for 14 days, versus saline): 46%
- CNV, MC4 siRNA with THIQ versus control siRNA (suture induced CNV; sutured C57BL/6, injected every other day for two weeks, THIQ together with siRNA against MC4): No statistical difference
- CNV in corneal transplants [1]: reduced
- Phosphorylation of additional PKC isoforms ([2]; THIQ 10 ug/mL, 5, 15 or 30 minutes): not observed
- PKCδ/θ (Ser643/676) phosphorylation ([2]; THIQ 10 ug/mL, 15 minutes, normalized to actin): decreased
- PKCδ/θ (Ser643/676) phosphorylation ([2]; THIQ 10 ug/mL, 30 minutes, normalized to actin): decreased
- phospho-PKCδ/θ (Ser643/676) phosphorylation ([2]; THIQ 10 ug/mL, five minutes, normalized to actin): Increased
- RelB nuclear localization (NF-kB): Increased
- c-Rel nuclear localization (NF-kB): not

Compound: Dynorphin A
- pDC ES protein expression (splenic pDCs): increased
- pDC TSP-1 protein expression (splenic pDCs): increased
